Tested on: 328373-195-R-J1-PDC complex spheroids, viability % test/control
Assay: Anticancer human tumor 328373-195-R-J1-PDC patient-derived head and neck squamous carcinoma cell line growth inhibition [CLK]
Settings: for IC50: curve of first compound; for viability, T/C: stronger effect = lower value
Outline: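 Patient-derived tumor cells grown as complex spheroids with HUVEC endothelial cells and mesenchymal stem cells, treated with drug combinations. Concentrations descend in half-log steps from near clinical Cmax, or from 10 microM if Cmax unknown.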

[1] = second compound 0.0316 µM, first compound 0.0316 µM
[2] = second compound 0.0316 µM, first compound 0.1 µM
[3] = second compound 0.0316 µM, first compound 0.316 µM
[4] = second compound 0.0316 µM, first compound 1 µM
[5] = second compound 0.0316 µM, first compound 3.16 µM
[6] = second compound 0.0316 µM, first compound 10 µM
[7] = second compound 0.1 µM, first compound 0.0316 µM
[8] = second compound 0.1 µM, first compound 0.1 µM
[9] = second compound 0.1 µM, first compound 0.316 µM
[10] = second compound 0.1 µM, first compound 1 µM
[11] = second compound 0.1 µM, first compound 3.16 µM
[12] = second compound 0.1 µM, first compound 10 µM
[13] = second compound 0.316 µM, first compound 0.0316 µM
[14] = second compound 0.316 µM, first compound 0.1 µM
[15] = second compound 0.316 µM, first compound 0.316 µM
[16] = second compound 0.316 µM, first compound 1 µM
[17] = second compound 0.316 µM, first compound 3.16 µM
[18] = second compound 0.316 µM, first compound 10 µM
[19] = second compound 1 µM, first compound 0.0316 µM
[20] = second compound 1 µM, first compound 0.1 µM
[21] = second compound 1 µM, first compound 0.316 µM
[22] = second compound 1 µM, first compound 1 µM
[23] = second compound 1 µM, first compound 3.16 µM
[24] = second compound 1 µM, first compound 10 µM
[25] = second compound 3.16 µM, first compound 0.0316 µM
[26] = second compound 3.16 µM, first compound 0.1 µM
[27] = second compound 3.16 µM, first compound 0.316 µM
[28] = second compound 3.16 µM, first compound 1 µM
[29] = second compound 3.16 µM, first compound 3.16 µM
[30] = second compound 3.16 µM, first compound 10 µM
[31] = second compound 10 µM, first compound 0.0316 µM
[32] = second compound 10 µM, first compound 0.1 µM
[33] = second compound 10 µM, first compound 0.316 µM
[34] = second compound 10 µM, first compound 1 µM
[35] = second compound 10 µM, first compound 3.16 µM
[36] = second compound 10 µM, first compound 10 µM
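Also: spheroids exposed to the agents for 7 days.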

Compound: CC(C)CC(NC(=O)C(Cc1ccccc1)NC(=O)c1cnccn1)B(O)O (stereo unspecified) + CNC(=O)c1ccc(Nc2nc(OC3CCCC3)c3c(-c4ccc5nc(C)oc5c4)c[nH]c3n2)c(OC)c1
- IC50 (second compound 0.0316 µM): 1.43 nM
- IC50 (second compound 0.1 µM): < 0.949 nM
- IC50 (second compound 0.316 µM): < 0.949 nM
- IC50 (second compound 1 µM): < 0.949 nM
- IC50 (second compound 3.16 µM): < 0.949 nM
- IC50 (second compound 10 µM): < 0.949 nM
- viability, T/C (second compound 0.0316 µM, first compound 0.000949 µM): 75.7%
- viability, T/C (second compound 0.0316 µM, first compound 0.003 µM): 3.15%
- viability, T/C (second compound 0.0316 µM, first compound 0.00949 µM): 0.27%
- viability, T/C (second compound 0.0316 µM, first compound 0.03 µM): 0.18%
- viability, T/C (second compound 0.0316 µM, first compound 0.0949 µM): 0.2%
- viability, T/C (second compound 0.0316 µM, first compound 0.3 µM): 0.32%
- viability, T/C (second compound 0.1 µM, first compound 0.000949 µM): 12.8%
- viability, T/C (second compound 0.1 µM, first compound 0.003 µM): 4.91%
- viability, T/C (second compound 0.1 µM, first compound 0.00949 µM): 0.98%
- viability, T/C (second compound 0.1 µM, first compound 0.03 µM): 0.14%
- viability, T/C (second compound 0.1 µM, first compound 0.0949 µM): 0.16%
- viability, T/C (second compound 0.1 µM, first compound 0.3 µM): 1.45%
- viability, T/C (second compound 0.316 µM, first compound 0.000949 µM): 10.9%
- viability, T/C (second compound 0.316 µM, first compound 0.003 µM): 5.82%
- viability, T/C (second compound 0.316 µM, first compound 0.00949 µM): 0.17%
- viability, T/C (second compound 0.316 µM, first compound 0.03 µM): 0.11%
- viability, T/C (second compound 0.316 µM, first compound 0.0949 µM): 0.14%
- viability, T/C (second compound 0.316 µM, first compound 0.3 µM): 0.13%
- viability, T/C (second compound 1 µM, first compound 0.000949 µM): 9.47%
- viability, T/C (second compound 1 µM, first compound 0.003 µM): 4.37%
- viability, T/C (second compound 1 µM, first compound 0.00949 µM): 0.14%
- viability, T/C (second compound 1 µM, first compound 0.03 µM): 0.08%
- viability, T/C (second compound 1 µM, first compound 0.0949 µM): 0.12%
- viability, T/C (second compound 1 µM, first compound 0.3 µM): 1.52%
- viability, T/C (second compound 3.16 µM, first compound 0.000949 µM): 12.4%
- viability, T/C (second compound 3.16 µM, first compound 0.003 µM): 3.42%
- viability, T/C (second compound 3.16 µM, first compound 0.00949 µM): 0.15%
- viability, T/C (second compound 3.16 µM, first compound 0.03 µM): 0.09%
- viability, T/C (second compound 3.16 µM, first compound 0.0949 µM): 0.24%
- viability, T/C (second compound 3.16 µM, first compound 0.3 µM): 0.19%
- viability, T/C (second compound 10 µM, first compound 0.000949 µM): 14.2%
- viability, T/C (second compound 10 µM, first compound 0.003 µM): 2.54%
- viability, T/C (second compound 10 µM, first compound 0.00949 µM): 0.2%
- viability, T/C (second compound 10 µM, first compound 0.03 µM): 0.64%
- viability, T/C (second compound 10 µM, first compound 0.0949 µM): 0.3%
- viability, T/C (second compound 10 µM, first compound 0.3 µM): 0.6%

Compound: CC1(C)CCC(CN2CCN(c3ccc(C(=O)NS(=O)(=O)c4ccc(NCC5CCOCC5)c([N+](=O)[O-])c4)c(Oc4cnc5[nH]ccc5c4)c3)CC2)=C(c2ccc(Cl)cc2)C1 + CNC(=O)c1ccc(Nc2nc(OC3CCCC3)c3c(-c4ccc5nc(C)oc5c4)c[nH]c3n2)c(OC)c1
- IC50 (second compound 0.0316 µM): 1390 nM
- IC50 (second compound 0.1 µM): < 31.6 nM
- IC50 (second compound 0.316 µM): < 31.6 nM
- IC50 (second compound 1 µM): < 31.6 nM
- IC50 (second compound 3.16 µM): < 31.6 nM
- IC50 (second compound 10 µM): < 31.6 nM
- viability, T/C [1]: 55.4%
- viability, T/C [2]: 54.7%
- viability, T/C [3]: 51.1%
- viability, T/C [4]: 55.7%
- viability, T/C [5]: 39.5%
- viability, T/C [6]: 7.81%
- viability, T/C [7]: 9.96%
- viability, T/C [8]: 10.7%
- viability, T/C [9]: 12.1%
- viability, T/C [10]: 11.7%
- viability, T/C [11]: 11.5%
- viability, T/C [12]: 6.36%
- viability, T/C [13]: 10%
- viability, T/C [14]: 10.9%
- viability, T/C [15]: 10.2%
- viability, T/C [16]: 9.51%
- viability, T/C [17]: 8.53%
- viability, T/C [18]: 6.4%
- viability, T/C [19]: 7.73%
- viability, T/C [20]: 8.42%
- viability, T/C [21]: 10.8%
- viability, T/C [22]: 10.6%
- viability, T/C [23]: 9.13%
- viability, T/C [24]: 6.23%
- viability, T/C [25]: 8.9%
- viability, T/C [26]: 11.5%
- viability, T/C [27]: 10.7%
- viability, T/C [28]: 10.2%
- viability, T/C [29]: 9.43%
- viability, T/C [30]: 6.44%
- viability, T/C [31]: 12.1%
- viability, T/C [32]: 9.87%
- viability, T/C [33]: 10.2%
- viability, T/C [34]: 11.4%
- viability, T/C [35]: 12.4%
- viability, T/C [36]: 11.9%

Compound: CC1COCCN1c1cc(C2(S(C)(=N)=O)CC2)nc(-c2ccnc3[nH]ccc23)n1 (stereo unspecified) + CNC(=O)c1ccc(Nc2nc(OC3CCCC3)c3c(-c4ccc5nc(C)oc5c4)c[nH]c3n2)c(OC)c1
- IC50 (second compound 0.0316 µM): 216 nM
- IC50 (second compound 0.1 µM): < 31.6 nM
- IC50 (second compound 0.316 µM): < 31.6 nM
- IC50 (second compound 1 µM): < 31.6 nM
- IC50 (second compound 3.16 µM): < 31.6 nM
- IC50 (second compound 10 µM): < 31.6 nM
- viability, T/C [1]: 64.5%
- viability, T/C [2]: 54.4%
- viability, T/C [3]: 45.9%
- viability, T/C [4]: 39.2%
- viability, T/C [5]: 18.9%
- viability, T/C [6]: 5.59%
- viability, T/C [7]: 13.4%
- viability, T/C [8]: 10.1%
- viability, T/C [9]: 8.26%
- viability, T/C [10]: 9.68%
- viability, T/C [11]: 5.72%
- viability, T/C [12]: 3.41%
- viability, T/C [13]: 9.78%
- viability, T/C [14]: 9.55%
- viability, T/C [15]: 8.53%
- viability, T/C [16]: 6.94%
- viability, T/C [17]: 5.01%
- viability, T/C [18]: 4.53%
- viability, T/C [19]: 8.51%
- viability, T/C [20]: 8.26%
- viability, T/C [21]: 8.32%
- viability, T/C [22]: 6.7%
- viability, T/C [23]: 5.13%
- viability, T/C [24]: 2.61%
- viability, T/C [25]: 10.1%
- viability, T/C [26]: 10.7%
- viability, T/C [27]: 8.57%
- viability, T/C [28]: 7.75%
- viability, T/C [29]: 4.82%
- viability, T/C [30]: 2.48%
- viability, T/C [31]: 12.3%
- viability, T/C [32]: 10.4%
- viability, T/C [33]: 8.76%
- viability, T/C [34]: 8.59%
- viability, T/C [35]: 5.88%
- viability, T/C [36]: 2.34%

From PubChem BioAssay AID2060620 (Molecular Pharmacology Branch, DTP, NCI, 2025)
